Experiments:
[1] = test system: CCRF-CEM cells; assay: Competition of cold 2F-AraG with 8-[3H]-AraG uptake in CCRF-CEM cells; type: cell-based; conditions: increasing amount of 2F-AraG 1-100 μM, 60 or 120 minutes
Experimental: FIG. 2.3a illustrates a graph of 5×10^5 CCRF-CEM cells were incubated, in triplicate, with 1 uCi 8H^3-AraG (1 mCi/ml) and increasing amounts of cold 2F-AraG or DMSO for either 60 or 120 minutes. Percent of control uptake was calculated as: measured cpm of sample/cpm accumulated 1 uCi 8[H^3]-AraG control×100.
We have successfully synthesized a novel ^18F derivative of 2-deoxyguanosine analog, 9-β-D-arabinofuranosylguanine (18F-AraG), to use as a molecular probe (FIG. 2.1). [^18F]AraG cell uptake was evaluated in leukemia cell line, CCRF-CEM, and was compared with [^3H]Arag cell uptake. […] To determine whether cold derivative 2F-AraG competes with the uptake of 8-[^3H]-AraG, we studied the [^3H]-Arag uptakes by CCRF-CEM, MOLT-4 (Leukemia cell line) and Raji (human Burkitt's lymphoma cell line) and competition with cold 2F-AraG (FIGS. 2.3a and 2.3b). […] Competition assays indicate that cold derivative 2F-Arag competes with the uptake of the 8-[^3H]-AraG, indicating similar uptake pathways.

[2] = cited from earlier work
[3] = test system: primary T cells; assay: [18F]F-AraG uptake in purified primary T cells, stimulated or un-stimulated; type: cell-based, mouse; conditions: for fold more uptake than un-stimulated primary T cells: 1 μCi, 60 minutes
Experimental: Error bars represent mean of triplicate determinations+/−SEM., n=4 p=0.14 and 0.003 by two tailed, paired Student T test respectively.
(§1) CCRF-CEM (acute lymphoblastic T leukemia cell line procured form ATCC) cells were maintained in RPMI 1640 (Cellgro) supplemented with 100 U penicillin/100 ug streptomycin/ml (Cellgro) and 10% fetal bovine serum (Gibco). 5×10^5 CCRF-CEM cells were plated in 12 well dishes. Cells were allowed to settle for one hour then [^18F]F-AraG was added to each well and incubated at 37° C. for indicated times. Primary T cells were isolated from spleens and thymus of out-bred mice. Briefly, tissues were minced and single cell suspensions made in RPMI supplemented as above. Cells were centrifuged at 300×g for 8 minutes at 4° C. and cell pellets were resuspended in phosphate buffered saline (PBS) supplemented with 0.5% bovine serum albumin (BSA). T cells were purified from the suspensions using Miltenyi Pan T antibodies and columns (Miltenyi Biotec) per manufacturer's directions. Purified T cells were either stimulated with 100 U/ml IL-2 (eBiosciences) for 24 or 48 hours, or 50 nM phorbol myristate acetate (PMA) (Fluka) with 1 μg/mL ionomycin (Sigma) for 48 hours or left unstimulated then exposed to 1 μCi of [^18F]F-AraG/10^6 cells for 60 minutes. All cells were then washed in 1×PBS, lysed and radioactivity of each well was determined by gamma counter for [^18F] samples. All results were done in triplicate and are expressed in counts per minute (CPM), standard errors were determined and student T tests performed.

[4] = test system: CCRF-CEM cells; assay: [18F]F-AraG cell uptake in CCRF-CEM cells (gamma counter); type: cell-based; conditions: for fold more [18F]F-AraG uptake at 10 μCi as compared to 3 μCi: 5×10^5 CCRF-CEM cells
Experimental: FIG. 2.2 illustrates a graph of 5×10^5 CCRF-CEM cells were labeled with ^18F-AraG (0.6 mCi/ml) for indicated times and doses. Uptake was measured on gamma counter. Bars represent mean of triplicate determinations+/−SEM.
Cells took up ˜2-fold more [^18F]F-AraG when exposed to 10 μCi, at 60 minutes (p=0.008) and at 120 minutes (p=0.001) as compared to 3 μCi. Error bars represent S.E.M.
as §1

[5] = micro PET scans in normal nude mice; type: in vivo; conditions: initial scans

Nc1nc2c(ncn2[C@@H]2O[C@H](CO)[C@@H](O)[C@@H]2F)c(=O)[nH]1 [2F-AraG, 2′-Deoxy-2′-fluoro-9-β-D-arabinofuranosylguanine]
effect on [3H]-AraG uptake [1]: decrease of the [^3H]-AraG uptake

Nc1nc2c(ncn2[C@@H]2O[C@H](CO)[C@@H](O)[C@@H]2O)c(=O)[nH]1 [AraG, 9-β-D-arabinofuranosylguanine]
therapeutic serum levels at which neurotoxic side effects are induced in some patients [2]: ~150 µM

Nc1nc2c(ncn2[C@@H]2O[C@H](CO)[C@@H](O)[C@@H]2[18F])c(=O)[nH]1 [[^18F]F-AraG, 2′-Deoxy-2′-[^18F]fluoro-9-β-D-arabinofuranosylguanine]
cell uptake (qualitative) ([3]; activated primary thymocytes / primary T cells): take up [^18F]F-AraG to an appreciable level
fold more uptake than un-stimulated primary T cells ([3]; stimulated with 50 nM PMA and 1 μg/mL ionomycin, p=0.003): 4.7 fold
fold more uptake than un-stimulated primary T cells ([3]; stimulated with 100 U/mL interleukin 2, p=0.14): 1.4 fold
fold more [18F]F-AraG uptake at 10 μCi as compared to 3 μCi ([4]; 60 minutes, p=0.008): ~2 fold
fold more [18F]F-AraG uptake at 10 μCi as compared to 3 μCi ([4]; 120 minutes, p=0.001): ~2 fold
dose dependence of uptake ([4]; CCRF-CEM cells): dose dependent
time course of uptake ([4]; CCRF-CEM cells, 60 or 120 minutes): majority of the [^18F]F-AraG is taken up by cells within the first hour
cell uptake (qualitative) ([4]; CCRF-CEM leukemia cell line, unactivated): take up
fold increase in [18F]F-AraG uptake, cells exposed to 10 μCi compared to 3 μCi ([4]; unactivated CCRF-CEM cells, time not stated): 2 fold
tissue uptake in micro PET [5]: taken up within the thymus and lymph nodes

Source: patent US9011817B2, “Compounds and methods of making compounds” (The Board of Trustees of the Leland Stanford Junior …, priority 2009, dated 2015)
